The text below walks through data of US10370343B2, “[6,6] Fused bicyclic HDAC8 inhibitors” (FORMA Therapeutics, Inc., priority 2015, dated 2019).

SMILES strings stand for the structures. Where only a bound is given, the exact number is not on record here.

The target in assay [1] is T1, Full length human recombinant HDAC8 protein (Homo sapiens, UniProt Q9BY41).
T1 construct: Full length human recombinant HDAC8 protein was expressed in baculoviral system; made in house
T1 sequence (Q9BY41 1-377): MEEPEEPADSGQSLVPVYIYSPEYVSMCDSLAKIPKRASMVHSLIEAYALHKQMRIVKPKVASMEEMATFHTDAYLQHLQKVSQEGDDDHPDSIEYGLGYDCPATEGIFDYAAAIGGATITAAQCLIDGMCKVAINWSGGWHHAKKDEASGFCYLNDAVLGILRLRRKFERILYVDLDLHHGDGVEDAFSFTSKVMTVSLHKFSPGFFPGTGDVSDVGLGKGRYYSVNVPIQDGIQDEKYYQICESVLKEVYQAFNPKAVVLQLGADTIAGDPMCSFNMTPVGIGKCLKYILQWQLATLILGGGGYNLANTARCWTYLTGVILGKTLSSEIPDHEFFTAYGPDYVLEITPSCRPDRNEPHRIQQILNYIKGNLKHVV
Briefly: In vitro histone deacetylase assay: enzymatic HDAC8 electrophoretic mobility shift assay. The note with it: electrophoretic mobility shift assay; enzyme 1 nM; 2 μM fluorescently labeled peptide substrate RHKK(Ac)-NH2; 25° C.; 12 concentrations; read-out: HDAC8 IC50. Type of assay: biochemical.

The target in assay [2] is T2, Recombinant N-terminal GST tag full-length human HDAC8 (Homo sapiens, UniProt Q9BY41).
T2 construct: Recombinant N-terminal GST tag full-length human HDAC8; purchased SignalChem H90-30G-1000; host or cells: baculovirus in Sf9 insect cells
T2 sequence (Q9BY41 1-377): T1 sequence (Q9BY41 1-377)
Briefly: HDAC8 probe binding assay, time resolved fluorescence (TRF) format. The note with it: compounds grouped by IC50 range (Table 2). A digest of the protocol:
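IC50 values come from four-parameter logistic fits of percent inhibition, scaled between DMSO (high) and no-enzyme (low) controls. Time-resolved fluorescence (ex 340, em 485/535 nm) was read after 16 h at room temperature. Enzyme was Sf9-expressed full-length human HDAC8 with an N-terminal GST tag, in a probe-binding format.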

As usually defined, the IC50 is the concentration that gives 50% inhibition. As for `COc1ccc(CN2C(=O)C(C(C)(C)C)Oc3ccc(C(=O)NO)cc32)cc1` (stereo not shown) [Compound I-103, 2-(tert-butyl)-N-hydroxy-4-(4-methoxybenzyl)-3-oxo-3,4-dihydro-2H-benzo[b][1,4]oxazine-6-carboxamide], the IC50 in assay [1] is less than 0.025 µM; in assay [2], not above 0.025 µM.

Regarding `COc1ccc(CN2C(=O)C(CCN)Oc3ccc(C(=O)NO)cc32)cc1` (stereo not shown) [Compound I-104, 2-(2-aminoethyl)-N-hydroxy-4-(4-methoxybenzyl)-3-oxo-3,4-dihydro-2H-benzo[b][1,4]oxazine-6-carboxamide], the IC50 in assay [1] was 0.025 to 0.1 µM; in assay [2], not above 0.025 µM.

Consider `O=C(NO)c1ccc2c(c1)N(Cc1ccccc1)CCO2` [Compound I-116, 4-benzyl-N-hydroxy-3,4-dihydro-2H-benzo[b][1,4]oxazine-6-carboxamide], for which the IC50 in assay [1] lay in the range of 0.1 to 1 µM; in assay [2] it was 0.025 to 0.1 µM.

Take `CS(=O)(=O)c1cccc(CN2CCOc3ccc(C(=O)NO)cc32)c1` [Compound I-125, N-hydroxy-4-(3-(methylsulfonyl)benzyl)-3,4-dihydro-2H-benzo[b][1,4]oxazine-6-carboxamide]: the half-inhibitory concentration (IC50) in assay [1] is 0.1 to 1 µM; in assay [2], 0.025 to 0.1 µM.

As to `CC(c1ccc(S(C)(=O)=O)cc1)N1CCOc2ccc(C(=O)NO)cc21` (stereo not shown) [Compound I-135, N-hydroxy-4-(1-(4-(methylsulfonyl)phenyl)ethyl)-3,4-dihydro-2H-benzo[b][1,4]oxazine-6-carboxamide], the IC50 in assay [1] and in assay [2] was 0.025 to 0.1 µM throughout.

Turning to `COc1ccc(CN2C(=O)COc3ccc(C(=O)NO)cc32)cc1` [Compound I-141, N-hydroxy-4-(4-methoxybenzyl)-3-oxo-3,4-dihydro-2H-benzo[b][1,4]oxazine-6-carboxamide], the IC50 is less than 0.025 µM in assay [1] and not above 0.025 µM in assay [2].

`CS(=O)(=O)c1ccc(CN2C(=O)COc3ccc(C(=O)NO)cc32)cc1` [Compound I-142, N-hydroxy-4-(4-(methylsulfonyl)benzyl)-3-oxo-3,4-dihydro-2H-benzo[b][1,4]oxazine-6-carboxamide]: the half-maximal inhibitory concentration (IC50) in assay [1] was less than 0.025 µM; in assay [2], not above 0.025 µM.

Regarding `O=C(NO)c1ccc2c(c1)N(Cc1cccc(Cl)c1)C(=O)CO2` [Compound I-143, 4-(3-chlorobenzyl)-N-hydroxy-3-oxo-3,4-dihydro-2H-benzo[b][1,4]oxazine-6-carboxamide], the IC50 in assay [1] was less than 0.025 µM; in assay [2], not above 0.025 µM.

As to `CS(=O)(=O)c1cccc(CN2C(=O)COc3ccc(C(=O)NO)cc32)c1` [Compound I-145, N-hydroxy-4-(3-(methylsulfonyl)benzyl)-3-oxo-3,4-dihydro-2H-benzo[b][1,4]oxazine-6-carboxamide], the IC50 in assay [1] and in assay [2] was 0.025 to 0.1 µM throughout.

With `O=C(NO)c1ccc2c(c1)N(Cc1ccccc1Cl)C(=O)CO2` [Compound I-147, 4-(2-chlorobenzyl)-N-hydroxy-3-oxo-3,4-dihydro-2H-benzo[b][1,4]oxazine-6-carboxamide], the results for the IC50 in assay [1] and in assay [2] were less than 0.025 µM and 0.025 to 0.1 µM, respectively.

Regarding `O=C(NO)c1ccc2c(c1)N(CC1CCCCC1)C(=O)CO2` [Compound I-149, 4-(cyclohexylmethyl)-N-hydroxy-3-oxo-3,4-dihydro-2H-benzo[b][1,4]oxazine-6-carboxamide], the IC50 in assay [1] and in assay [2] was 0.025 to 0.1 µM in each case.

`COc1ccc(CN2C(=O)C(C)Oc3ccc(C(=O)NO)cc32)cc1` (stereo not shown) [Compound I-151, N-hydroxy-4-(4-methoxybenzyl)-2-methyl-3-oxo-3,4-dihydro-2H-benzo[b][1,4]oxazine-6-carboxamide]: the results for the half-inhibitory concentration (IC50) in assay [1] and in assay [2] were less than 0.025 µM and not above 0.025 µM, respectively.

For the compound `CC1Oc2ccc(C(=O)NO)cc2N(Cc2ccc(S(C)(=O)=O)cc2)C1=O` (stereo not shown) [Compound I-152, N-hydroxy-2-methyl-4-(4-(methylsulfonyl)benzyl)-3-oxo-3,4-dihydro-2H-benzo[b][1,4]oxazine-6-carboxamide], the IC50 in assay [1] was less than 0.025 µM; in assay [2], not above 0.025 µM.

As for `CC1COc2ccc(C(=O)NO)cc2N1Cc1ccccc1` (stereo not shown) [Compound I-154, 4-benzyl-N-hydroxy-3-methyl-3,4-dihydro-2H-benzo[b][1,4]oxazine-6-carboxamide], the half-inhibitory concentration (IC50) in assay [1] and in assay [2] was 0.025 to 0.1 µM throughout.

For the compound `COc1ccc(CN2C(=O)C3(CCC3)Oc3ccc(C(=O)NO)cc32)cc1` [Compound I-157, N-hydroxy-4-(4-methoxybenzyl)-3-oxo-3,4-dihydrospiro[benzo[b][1,4]oxazine-2,1′-cyclobutane]-6-carboxamide], the IC50 in assay [1] and in assay [2] was 0.025 to 0.1 µM in each case.

`COc1ccc(CN2C(=O)C(C)(C)Oc3ccc(C(=O)NO)cc32)c(F)c1` [Compound I-160, 4-(2-fluoro-4-methoxybenzyl)-N-hydroxy-2,2-dimethyl-3-oxo-3,4-dihydro-2H-benzo[b][1,4]oxazine-6-carboxamide]: the half-inhibitory concentration (IC50) in assay [1] was less than 0.025 µM; in assay [2], not above 0.025 µM.

In the case of `CC1(C)Oc2ccc(C(=O)NO)cc2N(Cc2ccc(Cl)cc2F)C1=O` [Compound I-161, 4-(4-chloro-2-fluorobenzyl)-N-hydroxy-2,2-dimethyl-3-oxo-3,4-dihydro-2H-benzo[b][1,4]oxazine-6-carboxamide], the IC50 in assay [1] was less than 0.025 µM; in assay [2], not above 0.025 µM.

Take `Cc1ccc2nc(CN3C(=O)COc4ccc(C(=O)NO)cc43)oc2c1` [Compound I-213, N-hydroxy-4-((6-methylbenzo[d]oxazol-2-yl)methyl)-3-oxo-3,4-dihydro-2H-benzo[b][1,4]oxazine-6-carboxamide]: the IC50 in assay [1] is less than 0.025 µM; in assay [2], not above 0.025 µM.

Turning to `O=C(NO)c1ccc2c(c1)N(Cc1cn3ccccc3n1)C(=O)CO2` [Compound I-216, N-hydroxy-4-(imidazo[1,2-a]pyridin-2-ylmethyl)-3-oxo-3,4-dihydro-2H-benzo[b][1,4]oxazine-6-carboxamide], the half-inhibitory concentration (IC50) in assay [1] and in assay [2] was 0.025 to 0.1 µM throughout.

In the case of `O=C(NO)c1ccc2c(c1)N(Cc1nc3cc(F)ccc3o1)C(=O)CO2` [Compound I-217, 4-((5-fluorobenzo[d]oxazol-2-yl)methyl)-N-hydroxy-3-oxo-3,4-dihydro-2H-benzo[b][1,4]oxazine-6-carboxamide], the concentration for half-maximal inhibition (IC50) was less than 0.025 µM in assay [1] and not above 0.025 µM in assay [2].

Take `O=C(NO)c1ccc2c(c1)N(Cc1nc3ccc(F)cc3o1)C(=O)CO2` [Compound I-218, 4-((6-fluorobenzo[d]oxazol-2-yl)methyl)-N-hydroxy-3-oxo-3,4-dihydro-2H-benzo[b][1,4]oxazine-6-carboxamide]: the IC50 is less than 0.025 µM in assay [1] and not above 0.025 µM in assay [2].

Take `O=C(NO)c1ccc2c(c1)N(Cc1ccc(-c3ncco3)cc1)C(=O)CO2` [Compound I-221, N-hydroxy-4-(4-(oxazol-2-yl)benzyl)-3-oxo-3,4-dihydro-2H-benzo[b][1,4]oxazine-6-carboxamide]: the figures for the IC50 in assay [1] and in assay [2] were less than 0.025 µM and not above 0.025 µM, respectively.

Turning to `O=C(NO)c1ccc2c(c1)N(Cc1ccn(-c3ccccc3)n1)C(=O)CO2` [Compound I-222, N-hydroxy-3-oxo-4-((1-phenyl-1H-pyrazol-3-yl)methyl)-3,4-dihydro-2H-benzo[b][1,4]oxazine-6-carboxamide], the concentration for half-maximal inhibition (IC50) was less than 0.025 µM in assay [1] and not above 0.025 µM in assay [2].

Consider `O=C(NO)c1ccc2c(c1)N(Cc1cnn(-c3ccccc3)c1)C(=O)CO2` [Compound I-223, N-hydroxy-3-oxo-4-((1-phenyl-1H-pyrazol-4-yl)methyl)-3,4-dihydro-2H-benzo[b][1,4]oxazine-6-carboxamide], for which the 50% inhibitory concentration (IC50) in assay [1] is less than 0.025 µM; in assay [2], not above 0.025 µM.

For the compound `O=C(NO)c1ccc2c(c1)N(Cc1ccc(-n3cccn3)cc1)C(=O)CO2` [Compound I-224, 4-(4-(1H-pyrazol-1-yl)benzyl)-N-hydroxy-3-oxo-3,4-dihydro-2H-benzo[b][1,4]oxazine-6-carboxamide], the IC50 in assay [1] is less than 0.025 µM; in assay [2], not above 0.025 µM.

As for `COc1ccc(CN2C(=O)COc3ccc(C(=O)NO)cc32)c(Cl)c1` [Compound I-242, 4-(2-chloro-4-methoxybenzyl)-N-hydroxy-3-oxo-3,4-dihydro-2H-benzo[b][1,4]oxazine-6-carboxamide], the IC50 is less than 0.025 µM in assay [1] and not above 0.025 µM in assay [2].

Turning to `COc1ccc(CN2C(=O)COc3ccc(C(=O)NO)cc32)cc1Cl` [Compound I-243, 4-(3-chloro-4-methoxybenzyl)-N-hydroxy-3-oxo-3,4-dihydro-2H-benzo[b][1,4]oxazine-6-carboxamide], the concentration for half-maximal inhibition (IC50) is less than 0.025 µM in assay [1] and not above 0.025 µM in assay [2].

On to `COc1ccc(CN2C(=O)COc3ccc(C(=O)NO)cc32)cc1C` [Compound I-244, N-hydroxy-4-(4-methoxy-3-methylbenzyl)-3-oxo-3,4-dihydro-2H-benzo[b][1,4]oxazine-6-carboxamide], for which the IC50 in assay [1] is less than 0.025 µM; in assay [2] it was 0.025 to 0.1 µM.

In the case of `COc1ccc(CN2C(=O)COc3ccc(C(=O)NO)cc32)cc1F` [Compound I-245, 4-(3-fluoro-4-methoxybenzyl)-N-hydroxy-3-oxo-3,4-dihydro-2H-benzo[b][1,4]oxazine-6-carboxamide], the values for the IC50 in assay [1] and in assay [2] were less than 0.025 µM and not above 0.025 µM, respectively.
